A word on the melting point: it is the temperature of the solid-liquid transition.

Here are results for 7 compounds from patent US20140343048A1, “6-DIFLUOROMETHYL-5,6-DIHYDRO-2H-[1,4]OXAZIN-3-AMINE DERIVATIVES” (Janssen Pharmacetuica NV, priority 2011, published 2014).

In data set [1] the target is recombinant BACE1 protein (Homo sapiens, UniProt P56817). As to the kind of experiment: Biochemical FRET based assay. The settings on record: recombinant BACE1 1 μg/ml, 120 minutes, room temperature, pH 5.0; read-out: Biochemical FRET based assay pIC50 (converted). An excerpt: This assay is a Fluorescence Resonance Energy Transfer Assay (FRET) based assay. The substrate for this assay is an APP derived 13 amino acids peptide that contains the ‘Swedish’ Lys-Met/Asn-Leu mutation of the amyloid precursor protein (APP) beta-secretase cleavage site. This substrate also contains two fluorophores: (7-methoxycoumarin-4-yl) acetic acid (Mca) is a fluorescent donor with excitation wavelength at 320 nm and emission at 405 nm and 2,4-Dinitrophenyl (Dnp) is a proprietary quencher acceptor. […] Upon cleavage by BACE1, the fluorophore Mca is separated from the quenching group Dnp, restoring the full fluorescence yield of the donor. The increase in fluorescence is linearly related to the rate of proteolysis.
recombinant BACE1 protein, sequence (P56817 46-501): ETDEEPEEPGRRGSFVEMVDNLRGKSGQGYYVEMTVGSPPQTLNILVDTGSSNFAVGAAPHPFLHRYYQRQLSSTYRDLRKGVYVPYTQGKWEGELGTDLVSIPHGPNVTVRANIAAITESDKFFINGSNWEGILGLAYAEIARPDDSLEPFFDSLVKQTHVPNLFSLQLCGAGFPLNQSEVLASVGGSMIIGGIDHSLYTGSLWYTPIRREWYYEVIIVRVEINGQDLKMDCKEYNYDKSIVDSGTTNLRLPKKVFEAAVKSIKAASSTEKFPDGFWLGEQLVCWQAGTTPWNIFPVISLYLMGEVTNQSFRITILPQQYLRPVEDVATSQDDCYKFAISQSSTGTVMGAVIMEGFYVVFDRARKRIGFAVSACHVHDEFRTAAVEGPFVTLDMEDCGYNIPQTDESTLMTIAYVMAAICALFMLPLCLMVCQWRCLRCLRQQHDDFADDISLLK
Briefly in a 384-well format recombinant BACE1 protein in a final concentration of 1 μg/ml is incubated for 120 minutes at room temperature with 10 μm substrate in incubation buffer (40 mM Citrate buffer pH 5.0, 0.04% PEG, 4% DMSO) in the absence or presence of compound. Next the amount of proteolysis is directly measured by fluorescence measurement at T=0 and T=120 (excitation at 320 nm and emission at 405 nm). Results are expressed in RFU (Relative Fluorescence Units), as difference between T120 and T0.
From this an IC50 value (inhibitory concentration causing 50% inhibition of activity) can be obtained.

Data set [2] deals with Abeta 1-42 produced and secreted by human neuroblastoma SKNBE2 cells expressing hAPP695. As to the kind of experiment: Cellular αLisa assay in SKNBE2 cells, Abeta 42. It counts as cell-based. The note with it: incubated for 18 hours, read-out: Cellular αLisa assay in SKNBE2 cells Abeta 42 pIC50 (converted). The method, then: (§1) In two αLisa assays the levels of Abeta total and Abeta 1-42 produced and secreted into the medium of human neuroblastoma SKNBE2 cells are quantified. The assay is based on the human neuroblastoma SKNBE2 expressing the wild type Amyloid Precursor Protein (hAPP695). The compounds are diluted and added to these cells, incubated for 18 hours and then measurements of Abeta 1-42 and Abeta total are taken. Abeta total and Abeta 1-42 are measured by sandwich αLisa. αLisa is a sandwich assay using biotinylated antibody AbN/25 attached to streptavidin coated beads and antibody Ab4G8 or cAb42/26 conjugated acceptor beads for the detection of Abeta total and Abeta 1-42 respectively. In the presence of Abeta total or Abeta 1-42, the beads come into close proximity. The excitation of the donor beads provokes the release of singlet oxygen molecules that trigger a cascade of energy transfer in the acceptor beads, resulting in light emission. Light emission is measured after 1 hour incubation (excitation at […] and emission at 615 nm).
(§2) A best-fit curve is fitted by a minimum sum of squares method to the plot of % Controlmin versus compound concentration. From this an IC50 value (inhibitory concentration causing 50% inhibition of activity) can be obtained.

For data set [3], the system named is Abeta total produced and secreted by human neuroblastoma SKNBE2 cells expressing hAPP695. Kind of data set: Cellular αLisa assay in SKNBE2 cells, Abeta total. The data set is classed as cell-based. The settings on record: incubated for 18 hours, read-out: Cellular αLisa assay in SKNBE2 cells Abetatotal pIC50 (converted). The method, then:
as §1, §2

The subject of data set [4] is Aβ42 in the soluble fraction of brain homogenates. Kind of data set: In vivo efficacy: brain soluble Aβ42 lowering (ELISA). Set-up: species or system mouse. The note with it: p.o., non-transgenic animals. An excerpt: (§3) To determine whether acute administration of an Aβ42 peptide lowering agent would reduce Aβ peptide levels in vivo, non-transgenic rodents, e.g. mice or rats were used. Animals treated with the Aβ peptide lowering agent were examined and compared to those untreated or treated with vehicle and brain levels of soluble Aβ42 and total Aβ were quantitated by standard techniques, for example, using ELISA. Treatment periods varied from hours (h) to days and were adjusted based on the results of the Aβ42 lowering once a time course of onset of effect could be established.
(§4) A typical protocol for measuring Aβ42 lowering in vivo is shown but it is only one of many variations that could be used to optimize the levels of detectable Aβ. For example, Aβ peptide lowering compounds were formulated in 20% hydroxypropyl β cyclodextrin. The Aβ peptide lowering agents were administered as a single oral dose (p.o.) or a single subcutaneous dose (s.c.) to overnight fasted animals. After a certain time, usually 2 or 4 h (as indicated in Table 7), the animals were sacrificed and A1342 levels were analysed.
(§5) Blood was collected by decapitation and exsanguinations in EDTA-treated collection tubes. […] The left hemisphere was stored at −18° C. for quantitative analysis of test compound levels. […]
(§6) Mouse brains from non-transgenic animals were resuspended in 8 volumes of 0.4% DEA (diethylamine)/50 mM NaCl containing protease inhibitors (Roche-11873580001 or 04693159001) per gram of tissue, e.g. for 0.158 g brain, add 1.264 ml of 0.4% DEA. […] Nine parts of supernatant were neutralized with 1 part 0.5 M Tris-HCl pH 6.8 and used to quantify Aβtotal and Aβ42.
To quantify the amount of Aβtotal and Aβ42 in the soluble fraction of the brain homogenates, Enzyme-Linked-Immunosorbent-Assays were used. […] Following this incubation and subsequent wash steps the ELISA for Aβ42 quantification was finished by addition of Quanta Blu fluorogenic peroxidase substrate according to the manufacturer's instructions (Pierce Corp., Rockford, Ill.). A reading was performed after 10 to 15 min (excitation 320 nm/emission 420 nm).
Background: An ELISA detects its analyte on a solid surface through an enzyme-linked reagent.

Data set [5] concerns Aβtotal in the soluble fraction of brain homogenates. Kind of data set: In vivo efficacy: brain soluble Aβtotal lowering (ELISA). Set-up: species or system mouse. The note with it: p.o., non-transgenic animals.
Description: as §3, §4, §5, §6
To quantify the amount of Aβtotal and Aβ42 in the soluble fraction of the brain homogenates, Enzyme-Linked-Immunosorbent-Assays were used. […] Following this incubation and subsequent wash steps the ELISA for Aβ42 quantification was finished by addition of Quanta Blu fluorogenic peroxidase substrate according to the manufacturer's instructions (Pierce Corp., Rockford, Ill.). A reading was performed after 10 to 15 min (excitation 320 nm/emission 420 nm). […]

The mark [6] stands for this setting: 10 mpk, 2 h after administration.
[7] abbreviates: 30 mpk, 4 h after administration.

Regarding `CCC1(c2cc(NC(=O)c3cnc(OC)cn3)ccc2F)N=C(N)COC1C(F)F` (racemic) [Compound 3, cis-rac-N-{3-[5-Amino-2-(difluoromethyl)-3-ethyl-3,6-dihydro-2H-1,4-oxazin-3-yl]-4-fluorophenyl}-5-methoxypyrazine-2-carboxamide], the IC50 is 0.0631 µM in data set [1], 0.00417 µM in data set [2] and 0.00372 µM in data set [3].

On to `COc1cnc(C(=O)Nc2ccc(F)c([C@@]3(C)N=C(N)COC3C(F)F)c2)cn1` (single isomer, unassigned) [Compound 1, N-{3-[(2R*,3R)-5-Amino-2-(difluoromethyl)-3-methyl-3,6-dihydro-2H-1,4-oxazin-3-yl]-4-fluorophenyl}-5-methoxypyrazine-2-carboxamide], for which the IC50 in data set [1] is 0.0355 µM; in data set [2], 0.00417 µM; in data set [3], 0.00427 µM. In data set [4] (setting [6]), the “Aβ42 (% Ctrl)_Mean” value was 62 % Ctrl. In addition, the “Aβtotal (% Ctrl)_Mean” value in data set [5] (setting [6]) is reported as 59 % Ctrl.

Regarding `C[C@]1(c2cc(NC(=O)c3ccc(F)cn3)ccc2F)N=C(N)COC1C(F)F` (single isomer, unassigned) [Compound 2, N-{3-[(2R*,3R)-5-Amino-2-(difluoromethyl)-3-methyl-3,6-dihydro-2H-1,4-oxazin-3-yl]-4-fluorophenyl}-5-fluoropyridine-2-carboxamide], the melting point stood at 205.7 °C. The IC50 in data set [1] is 0.0355 µM. Moreover, the IC50 in data set [2] is 0.00851 µM. In addition, the IC50 in data set [3] was 0.00851 µM. In addition, the “Aβ42 (% Ctrl)_Mean” value in data set [4] (setting [6]) worked out at 91 % Ctrl. Besides, the “Aβtotal (% Ctrl)_Mean” value in data set [5] (setting [6]) is recorded as 96 % Ctrl.

For `C[C@]1(c2cc(-c3cncnc3)ccc2F)N=C(N)COC1C(F)F` (single isomer, unassigned) [Compound 4, (5R,6R*)-6-(Difluoromethyl)-5-(2-fluoro-5-pyrimidin-5-ylphenyl)-5-methyl-5,6-dihydro-2H-1,4-oxazin-3-amine], the IC50 in data set [1] was 0.427 µM; in data set [2], 0.129 µM; in data set [3], 0.129 µM.

As to `C[C@]1(c2cccc(-c3cncnc3)c2)N=C(N)COC1C(F)F` (single isomer, unassigned) [Compound 5, (5R,6R*)-6-(Difluoromethyl)-5-methyl-5-(3-pyrimidin-5-ylphenyl)-5,6-dihydro-2H-1,4-oxazin-3-amine], the IC50 was 0.457 µM in data set [1], 0.117 µM in data set [2] and 0.117 µM in data set [3].

As to `CC1(c2cc(NC(=O)c3ccc(Cl)cn3)ccc2F)N=C(N)COC1C(F)F` (single isomer, unassigned) [Compound 6, N-{3-[(2R*3R)-5-Amino-2-(difluoromethyl)-3-methyl-3,6-dihydro-2H-1,4-oxazin-3-yl]-4-fluorophenyl}-5-chloropyridine-2-carboxamide], the IC50 is 0.00331 µM in data set [2] and 0.00339 µM in data set [3].

On to `C[C@]1(c2cc(NC(=O)c3ccc(C#N)cn3)ccc2F)N=C(N)COC1C(F)F` (single isomer, unassigned) [Compound 7, N-{3-[(2R*,3R)-5-Amino-2-(difluoromethyl)-3-methyl-3,6-dihydro-2H-1,4-oxazin-3-yl]-4-fluorophenyl}-5-cyanopyridine-2-carboxamide], for which the melting point is 230.9 °C. For the same compound, the IC50 in data set [1] was 0.0537 µM. For the same compound, in data set [2], the IC50 was 0.00347 µM. Besides, the IC50 in data set [3] is 0.00309 µM. Also, the “Aβ42 (% Ctrl)_Mean” value in data set [4] (setting [7]) is listed as 53 % Ctrl. Also, the “Aβtotal (% Ctrl)_Mean” value in data set [5] (setting [7]) stood at 55 % Ctrl.
